According to US20240360133A1, “FUSED TRICYCLIC COMPOUND, PREPARATION METHOD THEREFOR AND APPLICATION THEREOF IN MEDICINE” (Jiangsu Hengrui Pharmaceuticals Co., Ltd., priority 2020, published 2024):

Biological target: T1, human TLR8 (Homo sapiens, UniProt Q9NR97)
T1 construct: host or cells: HEK-Blue hTLR8 (HEK293)
T1 sequence (Q9NR97 27-1041): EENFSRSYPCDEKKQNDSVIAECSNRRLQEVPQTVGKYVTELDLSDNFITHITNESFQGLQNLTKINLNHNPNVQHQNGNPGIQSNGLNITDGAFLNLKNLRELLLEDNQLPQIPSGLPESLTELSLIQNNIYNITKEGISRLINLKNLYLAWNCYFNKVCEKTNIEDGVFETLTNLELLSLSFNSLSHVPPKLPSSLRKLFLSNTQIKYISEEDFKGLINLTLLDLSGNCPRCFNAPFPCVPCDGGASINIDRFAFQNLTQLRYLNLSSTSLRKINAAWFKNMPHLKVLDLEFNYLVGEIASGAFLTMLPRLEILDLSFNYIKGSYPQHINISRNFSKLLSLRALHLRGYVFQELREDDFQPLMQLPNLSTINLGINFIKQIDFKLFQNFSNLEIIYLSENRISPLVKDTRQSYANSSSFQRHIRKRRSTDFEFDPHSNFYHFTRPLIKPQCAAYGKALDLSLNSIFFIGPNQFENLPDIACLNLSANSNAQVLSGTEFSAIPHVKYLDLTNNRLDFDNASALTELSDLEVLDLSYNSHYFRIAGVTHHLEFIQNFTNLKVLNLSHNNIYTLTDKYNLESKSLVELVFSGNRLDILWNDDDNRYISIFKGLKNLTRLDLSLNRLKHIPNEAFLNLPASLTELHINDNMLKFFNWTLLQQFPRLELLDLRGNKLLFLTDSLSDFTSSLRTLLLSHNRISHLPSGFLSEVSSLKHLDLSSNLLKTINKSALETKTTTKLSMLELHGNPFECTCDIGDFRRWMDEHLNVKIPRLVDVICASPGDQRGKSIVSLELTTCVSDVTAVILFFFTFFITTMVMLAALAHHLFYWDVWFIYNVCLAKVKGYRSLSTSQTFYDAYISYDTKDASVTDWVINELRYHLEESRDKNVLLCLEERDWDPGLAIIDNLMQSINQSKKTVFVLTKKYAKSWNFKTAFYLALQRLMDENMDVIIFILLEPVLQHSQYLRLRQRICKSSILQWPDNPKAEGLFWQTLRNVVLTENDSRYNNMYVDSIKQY
Assay: Inhibitory effect on human TLR8 pathway (HEK-Blue hTLR8 SEAP reporter)
Type: cell-based
Conditions: HEK-Blue hTLR8 cells, 6 μM resiquimod, 20 h, SEAP OD620
Protocol: • 1. HEK-Blue™ hTLR8 cell (Invivogen) • 2. Resiquimod (R848, Invivogen) • 3. Alkaline phosphatase detection medium (Quanti-Blue Detection, Invivogen) • 4. Blasticidin (Invivogen) • 5. Zeocin (Invivogen) • 6. Normocin (Invivogen) • 7. DMEM/HIGH Glucose (GE Healthcare) • 8. Fetal bovine serum (FBS, Gibco) • 9. Phosphate-buffered saline (Shanghai BasalMedia Technologies Co., Ltd.) • 10. Sterile purified water (made in-house by Shanghai Hengrui) • 11. 15 mL centrifuge tube (Corning) • 12. 96-well formulating plate (Corning) • 13. 96-well flat-bottom cell culture plate (Corning) • 14. Constant-temperature cell incubator (Thermo scientific) • 15. Constant-temperature incubator (Shanghai Yiheng Scientific Instruments Co., Ltd.) • 16. PHERAstar FS microplate reader (BMG Labtech)
HEK-Blue™ hTLR8 cells were purchased from Invivogen. These cells are HEK293 cells transfected with the human Toll-like receptor 8 (TLR8) gene and the secreted alkaline phosphatase reporter gene (SEAP). The alkaline phosphatase reporter gene (SEAP) is under the regulation of the IFN—P minimal promoter comprising 5 NF-kB and AP-1 binding sites. Upon activation of TLR8 with an agonist, SEAP secretion is induced via downstream NF-kB and AP-1. After addition of an antagonist compound, the pathway described above is inhibited, and SEAP secretion is reduced. The activity of the compounds for the TLR8 pathway was evaluated by measuring OD620 through the SEAP substrate.
20 mM test compounds dissolved in 100% DMSO were serially diluted with 100% DMSO to 2000, 400, 80, 16, 3.2, 0.64, 0.128, 0.0256 μM, with blank wells containing 100% DMSO. The compounds and 100% DMSO were then 20-fold diluted in DMEM/HIGH glucose media containing 10% inactivated FBS (complete media, the same applies below). Resiquimod was diluted to 60 μM with sterile water. The 60 μM resiquimod dilution in sterile water was added to a 96-well cell culture plate at 20 μL/well. The above compounds diluted in complete media and 100% DMSO were then added at 20 μL/well to wells containing resiquimod, 20 μL of sterile water and 20 μL of 100% DMSO diluted in the complete medium were added to negative control wells.
HEK-Blue™ hTLR8 cells were cultured in a DMEM/HIGH glucose medium containing 10% inactivated FBS, 100 μg/mL Normocin, 10 μg/mL blasticidin, and 100 μg/mL Zeocin. Cells that were in a good state of growth and had grown to 70%-8% were collected. The growth medium was discarded, 5-10 mL of PBS pre-heated at 37° C. was added to wash the cells once, and 2-5 mL of pre-heated PBS was added. The cells were cultured at 37° C. for 1-2 min, dispersed by pipetting, transferred to a 15 mL centrifuge tube, and counted, and the cell density was adjusted to 4.8×10^5/mL with the complete medium. After density adjustment, 160 μL of the resulting cell suspension was added to the above 96-well cell culture plate to a final number of cells per well of 76,500/well. The final concentration of resiquimod was 6 μM, and the final concentrations of the test compounds were 10,000, 2000, 400, 80, 16, 3.2, 0.64, and 0.128 nM. The cells were cultured in a 37° C., 5% CO2 incubator for 20 h. Then 20 μL of the supernatant was added to 180 μL of the prepared alkaline phosphatase detection medium and incubated in the dark in a constant-temperature incubator at 37° C. for 120 min. The OD620 absorbance readings were taken on a microplate reader. The inhibition rate was calculated using the following formula: […]
Inhibition curves were plotted using Graphpad Prism software according to the concentrations of the compounds and the corresponding inhibition rates, and the concentrations of the compounds at which the inhibition rate reached 50%, i.e., IC50 values, were calculated and are shown in Table 2.

Compound | IC50 [nM]
Cc1cc(-c2[nH]c3cc4c(nc3c2C(C)C)CNCC4)cc(C)n1 [Example 1, 2-(2,6-Dimethylpyridin-4-yl)-3-isopropyl-5,6,7,8-tetrahydro-1H-pyrrolo[3,2-b][1,7]naphthyridine] | 0.8
Cc1cc(-c2[nH]c3cc4c(nc3c2C(C)C)CN(C(C)C)CC4)cc(C)n1 [Example 2, 2-(2,6-Dimethylpyridin-4-yl)-3,6-diisopropyl-5,6,7,8-tetrahydro-1H-pyrrolo[3,2-b][1,7]naphthyridine] | 30.4
Cc1cc(-c2[nH]c3cc4c(nc3c2C(C)C)CN(CCc2ccc(N3CCNCC3)nc2)CC4)cc(C)n1 [Example 4, 2-(2,6-Dimethylpyridin-4-yl)-3-isopropyl-6-(2-(6-(piperazin-4-yl)pyridin-3-yl)ethyl)-5,6,7,8-tetrahydro-1H-pyrrolo[3,2-b][1,7]naphthyridine] | 1.8
Cc1cc(-c2[nH]c3cc4c(nc3c2C(C)C)CN(Cc2ccc(N3CCNCC3)cn2)CC4)cc(C)n1 [Example 5, 2-(2,6-Dimethylpyridin-4-yl)-3-isopropyl-6-((5-(piperazin-1-yl)pyridin-2-yl)methyl)-5,6,7,8-tetrahydro-1H-pyrrolo[3,2-b][1,7]naphthyridine] | 2.5
Cc1cc(-c2[nH]c3cc4c(nc3c2C(C)C)CN(CC23CCC(N)(CC2)CC3)CC4)cc(C)n1 [Example 7, 4-((2-(2,6-Dimethylpyridin-4-yl)-3-isopropyl-1,5,7,8-tetrahydro-6H-pyrrolo[3,2-b][1,7]naphthyridin-6-yl)methyl)bicyclo[2.2.2]octyl-1-amine] | 2.2
Cc1cc(-c2[nH]c3cc4c(nc3c2C(C)C)CN(CC(N)=O)CC4)cc(C)n1 [Example 8, 2-(2-(2,6-Dimethylpyridin-4-yl)-3-isopropyl-1,5,7,8-tetrahydro-6H-pyrrolo[3,2-b][1,7]naphthyridin-6-yl)acetamide] | 18.8
Cc1c(-c2[nH]c3cc4c(nc3c2C(C)C)CNCC4)cn2ncnc2c1C [Example 9, 2-(7,8-Dimethyl-[1,2,4]triazolo[1,5-a]pyridin-6-yl)-3-isopropyl-5,6,7,8-tetrahydro-1H-pyrrolo[3,2-b][1,7]naphthyridine] | 0.6
Cc1c(-c2[nH]c3cc4c(nc3c2C(C)C)CN(CC(N)=O)CC4)cn2ncnc2c1C [Example 10, 2-(2-(7,8-Dimethyl-[1,2,4]triazolo[1,5-a]pyridin-6-yl)-3-isopropyl-1,5,7,8-tetrahydro-6H-pyrrolo[3,2-b][1,7]naphthyridin-6-yl)acetamide] | 8.2
